The target of one data set is T1, INSR (Homo sapiens, UniProt P06213).
T1 construct: purchased CARNA BIOSCIENCE 08-142
Briefly: INSR inhibition assay (Caliper EZ Reader). In kind it is biochemical. Particulars: enzyme assay.

A further data set deals with H1975 cells (DM). Briefly: H1975 inhibition assay (cell proliferation), Method B. In kind it is cell-based. As to conditions: cellular proliferation, several runs.
The nature of the next data set: Mouse in vivo PK study. Particulars: male CDI mice; for F: PO 10 mg/kg vs IV 1 mg/kg; for clearance / half-life / AUC / Cmax: mouse, plasma; for clearance / half-life: IV 1 mg/kg; for half-life: read-out: T1/2 (IV) (converted); for AUC / Cmax: PO 10 mg/kg. As for the experimental part:
To determine the drug concentration in plasma of NJB-342, NJB-348 and NJB-463 following intravenous and oral administration in male CDI Mice, to get the pharmacokinetic profile and PK parameters
Test animals: healthy male CDI mice (body weight 20-30 g, 18 mice, free access to food and water), provided by Sibeifu laboratory.
Dose Level and dose route: dosed the animals via intravenous injection from tail vein for IV group (1 mg/kg, 5 mL/kg, 10% DMSO/40% PEG400/50% water), dosed the animals via oral gavage for PO group (10 mg/kg, 10 mL/kg, (10% DMSO/40% PEG400/50% water), respectively.
Samples collection: the healthy animals were used, weighed the bodyweight and marked at tail and cage card prior to dosing. Blood samples (0.03 mL per time point) were collected from dorsal metatarsal vein at 0.083, 0.25, 0.5, 1, 2, 4, 8, 24 h post dose for IV group and at 0.25, 0.5, 1, 2, 4, 8, 24 h post dose for PO group, the terminal time point was collected from heart (˜0.3 mL). The blood samples were put into the tube with heparin-Na coated and then put on the cold box, centrifuged at 4° C. 4000 g, 5 minutes immediately after collecting all samples per time point to get plasma. The plasma samples were stored in a freezer at −75±15° C. prior to analysis.

The subject of a further data set is PC9 cells (SM). The data set can be described thus: PC-9 growth inhibition assay (cell proliferation), Method B. The data set is classed as cell-based, human. Particulars: cellular proliferation, several runs.
The target of another data set is T2, IGF-1R (Homo sapiens, UniProt P08069).
T2 construct: purchased CARNA BIOSCIENCE 08-141
T2 sequence (P08069 959-1367 limits assumed): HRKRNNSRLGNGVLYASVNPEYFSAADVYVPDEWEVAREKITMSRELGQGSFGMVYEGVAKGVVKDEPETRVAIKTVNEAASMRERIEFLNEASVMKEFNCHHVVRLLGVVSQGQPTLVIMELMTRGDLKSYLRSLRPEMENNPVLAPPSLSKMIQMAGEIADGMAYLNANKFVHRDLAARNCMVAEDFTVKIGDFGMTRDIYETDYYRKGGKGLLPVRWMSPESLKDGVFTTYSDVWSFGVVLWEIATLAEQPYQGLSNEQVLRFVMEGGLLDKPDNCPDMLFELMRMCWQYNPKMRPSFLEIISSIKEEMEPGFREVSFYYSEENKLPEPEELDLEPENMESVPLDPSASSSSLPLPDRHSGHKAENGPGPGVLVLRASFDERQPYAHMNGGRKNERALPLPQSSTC
The data set can be described thus: IGF-1R inhibition assay (Caliper EZ Reader). As to conditions: enzyme assay. In kind it is biochemical. In outline: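 IGF-1R protein and peptide substrate were preincubated 30 min at RT with compound. Phosphorylated and non-phosphorylated fluorescent peptides were separated by mobility shift, and the read-out is the conversion ratio.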

The subject of data set [1] is p-EGFR in H1975 cells (L858R/T790M double mutant EGFR). As to conditions: Homo sapiens, NCI-H1975, 2 h, read-out: H1975 IC50 (nM), cellular EGFR autophosphorylation, 2 h treatment, ELISA.
Description: H1975 cells were cryopreserved in liquid nitrogen. […] Remove the vial from liquid nitrogen and thaw rapidly by placing at 37° C. in a water bath with gentle agitation for 1-2 minutes and then decontaminated by wiping with 70% ethanol before opening in a Class II biological safety cabinet. Transfer the vial contents drop-wise into 10 mL of cell culture medium in a sterile 15 mL conical tube. Then centrifuged the tube at 200× g for 5 minutes and aspirate the supernatant. Re-suspend the cell pellet with 1 mL of fresh cell culture medium and transfer it in to the T75 flask containing cell culture medium.
To passage H1975 cells, firstly, the adherent cells were rinsed with Trypsin/EDTA. Then add Trypsin/EDTA (3 mL for a T75 flask) into the flask and swirl to ensure the cells coated with trypsin evenly. Then incubate the flasks at 37° C. until the cells detach. Add equal volume of cell culture medium to stop the reaction. Collect the detached cells and centrifuged at 200× g for 5 minutes followed by re-suspended in fresh culture medium. Then, the cells were transferred into a new T75 flask containing cell culture medium. Cells were sub-cultured three times per week at a ratio of 1:4 in culture medium.
Harvest cells from flask into cell culture medium and the cell numbers counted using Automated Cell Counter (Thermo Fisher Scientific, Countess™). Dilute the cells into 250,000 cells/mL with culture medium and add 40 μL of cell suspension into each well of 384-well cell culture plate as designated. The final concentration was 10,000 cells/well. The plates were covered with lid and placed in 37° C. 5% CO2 incubator overnight for cell attachment.
On the second day, test compounds were dissolved in DMSO at 10 mM. […] The same volume of DMSO was adopted as high control.
Place the plate back to 37° C. 5% CO2 incubator for 2 hours. Replace the medium of each well with ice-cold HBSS. Then remove the HBSS, add 30 μL cell lysis buffer into each well and shake the plates for 30 mins on a plate shaker. Centrifuge for 5 min at 1,000 rpm to remove bubbles and transfer 25 uL of the lysate supernatant for p-EGFR assay by using a commercial ELISA kit (R&D, DYC1095B-5).
For estimation of IC50, the absorption readout are transformed to % relative activity by applying the following equation
[formula] The IC50 was then calculated by fitting in XLFit (IDBS, Guildford, Surrey) to a four parameters logistic curve.
A further data set deals with A431 cells (WT). The data set can be described thus: A431 inhibition assay (cell proliferation), Method B. Particulars: cellular proliferation, several runs. The data set is classed as cell-based, human. As for the experimental part: Cell Proliferation Assays—Method B
A431 Inhibition Assay, (Cell Proliferation).
The rest procedure was conducted in the same manner as described above for H1975 cells.

The test system of data set [2] is p-EGFR in A431 cells (wild type EGFR, EGF stimulated). The data set can be described thus: Wild type EGFR A431 autophosphorylation inhibition assay (ELISA). The data set is classed as cell-based, human. Particulars: Homo sapiens, A-431, cellular EGFR autophosphorylation, 2 h treatment, EGF stimulation 10 min. Here is the method:
(§1) Cellular EGFR Autophosphorylation Assays.
Wild Type EGFR A431 Autophosphorylation Inhibition Assay (ELISA).
After 2 hour treatment with test compounds, add 4.5 μL of EGF (1 μg/mL) into each well and stimulate for 10 min. The rest of the procedure was processed in the same manner as described above for H1975 cells.

Data set [3] has as its system p-EGFR in PC9 cells (Exon 19 deletion EGFR). The data set can be described thus: Exon19 deletion EGFR (activating single mutant) PC-9 cellular autophosphorylation assay. In kind it is cell-based, human. As to conditions: Homo sapiens, PC-9, 2 h, 2 h treatment, ELISA. As for the experimental part: as §1
The human lung cell line PC9 (Exon 19 deletion EGFR) is obtained from the American type Culture Collection. […] Cells are grown in a humidified incubator at 37° C. with 5% CO2, Assays to measure cellular phosphorylation of endogenous p-EGFR in cell Iysates are carried out according to the protocol described in the R&D Systems DuoSet IC Human Phospho-EGF R ELISA (R&D Systems catalogue number #DYCI095). 40 μL of cells are seeded (10000 cells/well) in growth medium in Corning black, clear-bottomed 384-well plates and incubated at 37° C., with 5%0/CO2 overnight. […] Plates are incubated for a further 2 h, then following aspiration of medium, 40 μL×lysis buffer is added to each well. Greiner black high bind 384 well plates are coated with capture antibody and then blocked with 3% BSA. Following removal of block, 15 μL of lysate are transferred to the Greiner black high bind 384 well plates and incubated for 2 hours. Following aspiration and washing of the plates with PBS, 20 μL of detection antibody are added and incubated for 2 hours. […] The data obtained with each compound are exported into a suitable software package (such as Origin) to perform curve fitting analysis.
On the technique in general: ELISA stands for enzyme-linked immunosorbent assay.

pIC50: −log10 of the molar value. Several values for one entry are separate records, joined by “and”; a condition that tells them apart may be missing. Equal entries are not always repeated. Structures can show the parent of a compound that is named as a salt.

The record followed here is patent publication US10435388B2, “Selective inhibitors of clinically important mutants of the EGFR tyrosine kinase” (CS PHARMATECH LIMITED, priority 2016, dated 2019).

T1 sequence (P06213 989-1382 limits assumed): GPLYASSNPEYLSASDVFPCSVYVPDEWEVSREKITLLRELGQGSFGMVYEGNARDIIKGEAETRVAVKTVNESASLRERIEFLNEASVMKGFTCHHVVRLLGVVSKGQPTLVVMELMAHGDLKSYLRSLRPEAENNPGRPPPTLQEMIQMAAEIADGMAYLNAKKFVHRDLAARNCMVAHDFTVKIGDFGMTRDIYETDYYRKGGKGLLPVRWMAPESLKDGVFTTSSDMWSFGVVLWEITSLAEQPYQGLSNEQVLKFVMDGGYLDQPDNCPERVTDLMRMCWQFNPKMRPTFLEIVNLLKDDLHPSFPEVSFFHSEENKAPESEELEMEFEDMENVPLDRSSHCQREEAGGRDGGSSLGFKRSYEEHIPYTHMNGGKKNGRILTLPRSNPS

In the case of `C=CC(=O)Nc1cc(Nc2nccc(-n3nc(NC)c4ccccc43)n2)c(OC)cc1N(C)CCN(C)C` [Example 21, N-(2-((2-(Dimethylamino)ethyl)(methyl)amino)-4-methoxy-5-(4-(3-(methylamino)-1H-indazol-1-yl)pyrimidin-2-ylamino)phenyl) acrylamide], the IC50 (usually the concentration needed to halve the response being measured) came to 134 nM against INSR and 180 nM at IGF-1R. For the same compound, the pIC50 (as a rule, −log10 of the IC50, conventionally taken in molar units) in the data set on H1975 cells (DM) (Homo sapiens, NCI-H1975, 72 h) is 8.63; in the data set on H1975 cells (DM) (72 h), 8.70 and 8.54; in the data set with PC9 cells (SM) (Homo sapiens, PC-9, 72 h), 8.60; in the data set on PC9 cells (SM) (72 h) it was 8.63 and 8.35. The F in the data set “Mouse in vivo PK study” is recorded as 27.2%. For the same compound, the clearance (commonly the volume of plasma or blood freed of the substance per unit of time) in the data set “Mouse in vivo PK study” is 163 mL/min/kg. The half-life in the data set “Mouse in vivo PK study” is 0.73 h. For the same compound, the AUC (in general, concentration integrated over time) in the data set “Mouse in vivo PK study” was 282 ng·h/mL. Besides, the peak level in “Mouse in vivo PK study” (Cmax) was 86 ng/mL.
For the compound `C=CC(=O)Nc1cc(Nc2nccc(-c3cc(C(N)=O)cc4c3ccn4C)n2)c(OC)cc1N(C)CCN(C)C` [Example 34, 4-(2-((5-Acrylamido-4-((2-(dimethylamino)ethyl)(methyl)amino)-2-methoxyphenyl)amino)pyrimidin-4-yl)-1N-methyl-1H-indole-6-carboxamide hydrochloride], the figures for the IC50 (in data set [1]; against INSR; at IGF-1R) were 2.19 nM, 514 nM and 470 nM, respectively. For the same compound, the pIC50 with A431 cells (WT) (Homo sapiens, A-431, 72 h) was 5.75; with A431 cells (WT) (72 h, hydrochloride), 6.03; in the data set on H1975 cells (DM) (Homo sapiens, NCI-H1975, 72 h), 8.34; in the data set with H1975 cells (DM) (72 h, hydrochloride), 8.49; with PC9 cells (SM) (Homo sapiens, PC-9, 72 h), 8.14; in the data set on PC9 cells (SM) (72 h, hydrochloride), 7.96. Besides, the pIC50 is 6.40 in data set [2] and 8.15 in data set [3]. This compound returned a F in “Mouse in vivo PK study” of 10.3%. The compound also gave a clearance in “Mouse in vivo PK study” of 110 mL/min/kg. For the same compound, the half-life in the data set “Mouse in vivo PK study” is 1.11 h. The AUC in “Mouse in vivo PK study” stood at 165 ng·h/mL. In “Mouse in vivo PK study”, the Cmax – broadly, the maximum level reached in the sampled fluid or tissue – was determined as 58 ng/mL.
On to `C=CC(=O)Nc1cc(Nc2nccc(-n3nc(N(C)C)c4ccccc43)n2)c(OC)cc1N(C)CCN(C)C` [Example 42, N-(5-((4-(3-(Dimethylamino)-1H-indazol-1-yl)pyrimidin-2-yl)amino)-2-((2-(dimethylamino)ethyl)(methyl)amino)-4-methoxyphenyl) acrylamide], for which the half-inhibitory concentration (IC50) amounted to 4.19 nM in data set [1], 366 nM at INSR and 337 nM against IGF-1R. The pIC50 was 6.40 with A431 cells (WT) (Homo sapiens, A-431, 72 h); 8.63 with H1975 cells (DM) (Homo sapiens, NCI-H1975, 72 h); 8.64 in the data set with PC9 cells (SM) (Homo sapiens, PC-9, 72 h); 7.18 in [2]; 8.43 in [3]. In “Mouse in vivo PK study”, this compound gave an F of 42.1%. This compound also had a clearance in “Mouse in vivo PK study” of 97 mL/min/kg. For the same compound, the half-life in the data set “Mouse in vivo PK study” is 1.32 h. In addition, the AUC in the data set “Mouse in vivo PK study” turned out to be 677 ng·h/mL. The compound further showed a peak concentration (Cmax) in “Mouse in vivo PK study” of 176 ng/mL.
